From publication PMC5320518, “Novel Liver-targeted conjugates of Glycogen Phosphorylase Inhibitor PSN-357 for the Treatment of Diabetes: Design, Synthesis, Pharmacokinetic and Pharmacological Evaluations” (Scientific Reports, 2017)

How the values were obtained:
[1] = Stability in mouse liver microsomes (MLM); type: in vitro ADME; conditions: C57BL/6, pH 7.4, n = 3
Description: Additionally, the compounds’ stability in microsome were evaluated by measuring the rate of compounds consumpation in MLM and the results are shown in Table 3.
The microsomal pellet was suspended in potassium phosphate buffer (100 mM, pH 7.4), 10 μM test compound or positive control (diclofenac) was added. Liver microsomes from C57BL/6 mice (BD Gentest) were pooled. The mixture of microsome solution and compound was incubated at 37 °C for about 10 min in the presence of a NADPH-regenerating system, consisting of 0.02 M DL-isocitric acid (trisodium salt), 0.1 mg/mL isocitrate dehydrogenase and 1 mM NADPH. The addition of ice-cold CH3CN (including 100 ng/mL tolbutamide as internal standard) terminated the reaction. The mixture was vortexed for approx (30 s), centrifuged (20 min, 4000 rpm) and the supernatant was collected and analysed by LC-MS/MS method.

[2] = Stability in mouse plasma; type: in vitro ADME; conditions: 2 μM, 37 °C, 120-min test
Description: Frozen plasma from male C57 BL/6 mice was incubated for 5 min at 37 °C before the addition of the test compound. Then prepared 2 μM incubation sample, and aliquots of the incubation mixtures (100 μL) were taken at predetermined time points (10, 30, 60, 120 min) at 37 °C. After incubation, the mixtures was added 400 μL of 50% ACN/50% MeOH containing internal standard (IS, 200 ng/mL Tolbutamide and 20 ng/mL Buspirone) to each sample tube and then centrifuged at 13000 rpm for 8 min. Blank incubations in the absence of the test compound were also performed. The analyses of test compounds were performed by LC-MS/MS analysis.

[3] = Stability in simulated intestinal fluid (SIF); type: in vitro ADME; conditions: SIF pH 6.79 with pancreatin, 2 μM, 37 °C
Description: (§1) All the conjugates were tested for their chemical and metabolic stability in multiple assays, including simulated gastric fluid (SGF), simulated interstinal fluid (SIF), mouse plasma, and mouse liver microsome (MLM).
(§2) For the stability in SGF (Fig. 8) and SIF (Fig. 9), the conjugates could be divided into three groups: (1) stable conjugates 2, 6 and 9. […] The two conjugates were degraded within 6 h and 1 h in SGF and SIF, respectively, with alomost no conjugates at the end of the 24 h incubation in both SGF and SIF; (3) complicated conjugates 3, 4, 5 and 8.
(§3) The simulated gastrointestinal fluids were prepared according to USP specifications. For SGF, NaCl (0.12 g) and pepsin (0.18 g, from porcine stomach mucosa) was dissolved in HCl (0.42 mL) and sufficient H2O was added to make 60 mL. The pH of the test solution was determined as 1.21 by pH meter. For the SIF, KH2PO4 (0.408 g) and pancreatin (0.6 g, from porcine pancreas) was dissolved in H2O (60 mL). The pH of the test solution was determined as 6.79 by pH meter. Each test compound was dissolved in DMSO and diluted to a final concentration of 2 μM in SIF and SGF. The final concentrations of DMSO and CH3CN in the incubation mixture were 0.2% and 0.45%. Aliquots of these solutions were pipetted into glass tubes, and placed in a 37 °C shaking water bath. Test samples at corresponding time point (1, 2, 6, 24 h) were removed at the end of incubation time and immediately mixed with 800 μL of cold acetonitrile containing 500 ng/mL tolbutamide (internal standard). Samples were subjected to centrifuge at 4000 rpm, 4 °C for 20 min. Aliquots 60 μL of supernatant was combined with 120 μL water for LC-MS/MS analysis.

[4] = target: T1, rabbit muscle GPa (RMGPa) (Oryctolagus cuniculus, UniProt P00489); experiment: RMGPa inhibition assay (phosphate release from glucose-1-phosphate); type: biochemical; conditions: mean ± S.D. of three determinations; NI means no inhibition
T1 sequence (P00489 2-843 limits assumed): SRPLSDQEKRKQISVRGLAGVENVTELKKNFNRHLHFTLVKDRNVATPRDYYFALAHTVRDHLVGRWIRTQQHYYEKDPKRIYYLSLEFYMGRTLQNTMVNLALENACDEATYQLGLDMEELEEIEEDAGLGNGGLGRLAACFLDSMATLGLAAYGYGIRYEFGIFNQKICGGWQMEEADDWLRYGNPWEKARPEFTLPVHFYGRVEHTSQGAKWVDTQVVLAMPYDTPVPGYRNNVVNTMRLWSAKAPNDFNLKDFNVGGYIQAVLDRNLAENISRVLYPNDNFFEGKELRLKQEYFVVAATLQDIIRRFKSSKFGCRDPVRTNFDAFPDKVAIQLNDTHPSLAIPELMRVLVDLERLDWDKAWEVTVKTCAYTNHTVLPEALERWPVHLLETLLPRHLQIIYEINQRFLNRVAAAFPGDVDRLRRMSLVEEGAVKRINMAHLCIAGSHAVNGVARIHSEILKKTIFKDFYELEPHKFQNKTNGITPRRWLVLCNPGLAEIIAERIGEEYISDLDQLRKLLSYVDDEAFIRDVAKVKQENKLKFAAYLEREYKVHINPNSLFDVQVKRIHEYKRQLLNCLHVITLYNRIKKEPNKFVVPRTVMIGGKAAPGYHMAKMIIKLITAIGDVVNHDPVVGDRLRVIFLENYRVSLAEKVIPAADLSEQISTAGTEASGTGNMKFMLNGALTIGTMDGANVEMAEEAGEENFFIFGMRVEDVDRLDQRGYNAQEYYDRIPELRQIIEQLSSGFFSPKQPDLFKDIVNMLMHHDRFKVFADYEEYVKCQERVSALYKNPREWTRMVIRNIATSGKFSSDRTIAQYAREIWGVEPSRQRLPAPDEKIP
Description: All the compounds were evaluated for their inhibitory activity against rabbit muscle GPa (RMGPa). The activity of RMGPa was measured through detecting the release of phosphate from glucose-1-phosphate in the direction of glycogen synthesis. CP-91149, a well-known allosteric GP inhibitor, which shares the same binding site with PSN-357, was used as the positive control and the results are summarized in Table 1[21]. […] This remarkable loss of activity was probably due to the direct steric interference by such bulky substituent of cholic acid group. […] The results is consistent with the SARs of PSN-357 that the hydroxyl of piperidine is not an essential group for the GP inhibitory activity that could be modified slightly.
The inhibitory activity of the test compounds against rabbit muscle glycogen phosphorylase a (GPa) was monitored using microplate reader (BIO-RAD) based on the published method. In brief, GPa activity was measured in the direction of glycogen synthesis by the release of phosphate from glucose-1-phosphate. Each test compound was dissolved in DMSO and diluted at different concentrations for IC50 determination. The enzyme was added into 100 μL of buffer containing 50 mM Hepes (pH = 7.2), 100 mM KCl, 2.5 mM MgCl2, 0.5 mM glucose-1-phosphate, 1 mg/mL glycogen and the test compound in 96-well microplates (Costar). After the addition of 150 μL of 1 M HCl containing 10 mg/mL ammonium molybdate and 0.38 mg/mL malachite green, reactions were run at 22 °C for 25 min, and then the phosphate absorbance was measured at 655 nm. The IC50 values were estimated by fitting the inhibition data to a dose-dependent curve using a logistic derivative equation.

[5] = Stability in simulated gastric fluid (SGF); type: in vitro ADME; conditions: SGF pH 1.21 with pepsin, 2 μM, 37 °C, 24 h incubation
Description: as §1, §2, §3

skeletal muscle function = tested on: skeletal muscle function; design: method as in PMID 16046314, PMID 16731853; conditions: prolonged (60 min) muscle contraction, perfused rat hindlimb model; cited from earlier work

| Compound | CLint scaled at 10 μM [1] [mL/min/kg] | half-life at 10 μM [1] [min] | microsomal CLint at 10 μM [1] [µL/min/mg] | degradation in mouse plasma [2] | time within which degraded in SIF [3] [h] | IC50 (RMGPa inhibition) [4] | stability in SGF (in words) [5] | melting point [°C] | greater muscle fatigue than the control group (skeletal muscle function) [%] |
| --- | --- | --- | --- | --- | --- | --- | --- | --- | --- |
| CC(C)[C@H](NC(=O)CC[C@@H](C)[C@H]1CC[C@H]2[C@@H]3[C@H](O)C[C@@H]4C[C@H](O)CC[C@]4(C)[C@H]3C[C@H](O)[C@]12C)C(=O)OC1CCN(C(=O)[C@H](Cc2ccc(F)cc2)NC(=O)c2cc3cc(Cl)ncc3[nH]2)CC1 [Conjugate 4] | 150 | 36.5 | 38 | approximately 4% | ≤ 1 | no activity | relatively stable | 185 to 187 |  |
| CP316819 |  |  |  |  |  |  |  |  | 35 |
